Results reported in patent US11186588B2 (AYUMI PHARMACEUTICAL CORPORATION, priority 2017, dated 2021).

Tests used:
IL-6 production = experiment: LPS-induced IL-6 production model test; type: in vivo, C57BL/6J mice; conditions: 10 mg/kg oral, 30 min before LPS 1 mg/kg i.p., serum IL-6 60 min after LPS, mice
Procedure: In order to evaluate the inhibitory activity of inflammatory cytokine production in the present compounds, LPS-induced IL-6 production model evaluation was carried out. The specific method is described below.
An appropriate amount of each compound was weighed, triturated with an agate mortar, and suspended or dissolved in 1% methyl cellulose solution to prepare 1 mg/mL solution.
C57BL/6J mice (male, Purchaser: Charles River Laboratories Japan, Inc.) were weighted, before divided into normal group, control group and each compound-administered group based on the measured body weight using a random number, wherein each group contained 6 samples. The mice were manually held in hands and forced orally administered the 1% methyl cellulose solution (normal and control group) or each administration solution comprising the compound (each compound-administered group) at a dose of 10 mL/kg into stomach using a feeding needle. After 30 minutes from administration of the 1% methyl cellulose solution or each compound administration solution, the mice were manually held in hands and intraperitoneally administered physiological saline (normal group) or LPS solution (control and each compound-administered group) at a dose of 1 mg/kg. After 60 minutes from administration of the LPS solution, whole blood was collected from the abdominal vena cava of each mouse under isoflurane inhalation anesthesia (available from Mylan Seiyaku Ltd.), and the mice were euthanized. The collected blood was allowed to stand at room temperature for one hour, and then centrifuged at 1,500 G for 10 minutes to collect a serum (supernatant). The collected serum was stored in a deep freezer set at −80° C. until the measurement of IL-6 in the serum. The IL-6 concentration in the serum of each mouse was measured by a commercially available kit (available from R&D systems, Cat No. M6000B), according to the protocol attached thereto.
The IL-6 production inhibition rate (%) was calculated by the following equation using Microsoft EXCEL 2010. IL-6 production inhibition rate (%)=100−{(average value of IL-6 concentration in serum of each compound-administered group)−(average value of IL-6 concentration in serum of normal group))/(average value of IL-6 concentration in serum of control group)−(average value of IL-6 concentration in serum of normal group)}×100

[1] = Pharmacokinetics test in rats (oral administration); type: in vivo, LEW/CrlCrlj rats; conditions: mean n = 4; for AUCinf / AUCt / Cmax / Kel / MRT / T1/2 / Tmax: oral 2 mg/mL solution at 5 mL/kg; for Concentration (ng/mL), sampling time 0.5 h / Concentration (ng/mL), sampling time 1 h / Concentration (ng/mL), sampling time 3 h / Concentration (ng/mL), sampling time 6 h: plasma; for Concentration (ng/mL), sampling time 0.5 h: 0.5 h after oral 2 mg/mL solution at 5 mL/kg; for Concentration (ng/mL), sampling time 1 h: 1 h after oral 2 mg/mL solution at 5 mL/kg; for Concentration (ng/mL), sampling time 3 h: 3 h after oral 2 mg/mL solution at 5 mL/kg; for Concentration (ng/mL), sampling time 6 h: 6 h after oral 2 mg/mL solution at 5 mL/kg
Procedure: In order to evaluate the transition of plasma concentration of the present compound after oral administration, pharmacokinetics was evaluated in rats. The specific method is described below.
Appropriate amounts of Example 71 and various salts thereof were weighed, triturated with an agate mortar, and suspended or dissolved in 1% methyl cellulose solution to 2 mg/mL (as a converted quantity of Example 71 considering the correction of purify).
LEW/CrlCrlj rats (male, purchased form Charles River Laboratories Japan, Inc.) were weighted, a random number based on the measured body weight was used to avoid difference in average body weight among groups, and the rats were divided into groups, wherein each groups contained 4 rats. The rats were manually held in hands and forced orally administered each administration solution comprising the compound at a dose of 5 mL/kg into stomach using a feeding needle. At 0.5, 1, 3, 6 and 24 hours after the administration of each administration solution comprising the compound, the rats were manually held in hands, and blood was collected from the jugular vein or subclavian vein using a heparin-treated injection syringe. The obtained blood was centrifuged at 1,500 G for 10 minutes, and plasma was collected as an actual sample. In addition, plasma was collected from rats before the administration of the compound in the same manner, which was used as blank plasma. The collected actual samples and blank plasma were stored in a freezer set at −70° C. until the measurement of the compound concentration. To 20 μL of each actual sample were added 20 μL of acetonitrile (available from Kishida Chemical Co., Ltd., Cat No. 140-00401), 100 μL of MilliQ water and 20 μL of the internal standard solution to prepare an analytical sample. In addition, to 20 μL of blank plasma were added 20 μL or 40 μL of acetonitrile (available from Kishida Chemical Co., Ltd., Cat No. 140-00401) and 100 μL of MilliQ water (a blank sample or a zero sample, respectively). A standard sample for a calibration curve was prepared by mixing 20 μL of blank plasma, 20 μL of the standard solution for a calibration curve in each concentration, 100 μL of MilliQ water and 20 μL of the internal standard solution. Whole amount of the prepared each sample was applied to a diatomaceous earth column for liquid-liquid extraction (available from Biotage, Cat No. 820-0200), tert-butyl methyl ether (available from Kanto Chemical Co., Inc., Cat No. 04418-5B) was added and eluted by natural dropping, and the obtained eluate was concentrated to dryness under a nitrogen stream. The residue was dissolved in the re-dissolved solution and 10 μL of each sample was injected into the LC/MS/MS apparatus.
LC/MS/MS analysis was carried out under the following conditions. Analytical column: Hydrosphere C18, 3 μm, 2.0 mm I.D.×50 mm (from YMC, Cat No. HS12S03-0502WT)
Flow rate: 0.3 mL/min. Column temperature: 50° C. Peak area calculation, peak area ratio calculation, preparation of calibration and quantification used in calculating the concentration for the LC/MS/MS analysis were carried out by Analyst ver.1.6.2 (available from AB Sciex). In addition, by using the obtained concentration measurement results, these were analyzed by Non-compartmental model of a pharmacokinetics analysis program WinNonlin ver.6.1 (Pharsight Corporation), and the pharmacokinetics parameter was calculated.

Row | Structure (SMILES) | AUCinf [1] [ng·h/mL] | AUCt [1] [ng·h/mL] | Cmax [1] [ng/mL] | Kel [1] [h⁻¹] | MRT [1] [h] | T1/2 [1] [h] | Tmax [1] [h] | Concentration (ng/mL), sampling time 0.5 h [1] [ng/mL] | Concentration (ng/mL), sampling time 1 h [1] [ng/mL] | Concentration (ng/mL), sampling time 3 h [1] [ng/mL] | Concentration (ng/mL), sampling time 6 h [1] [ng/mL] | LPS-induced IL-6 production (% Inhibition @ 10 mg/kg) (IL-6 production) [%]
1 | CC(=O)Nc1ccc(C2=NN(Cc3cccnc3)c3nnc(C)n3-c3sc(C)c(C)c32)cc1.Cl [1 Hydrochloride of Example 71] | 105.65 | 114.07 | 111.0 | 0.57 | 1.12 | 1.24 | 0.50 | 111.0 | 34.0 | 6.75 | 1.5 | 82.7
2 | CC(=O)Nc1ccc(C2=NN(Cc3cccnc3)c3nnc(C)n3-c3sc(C)c(C)c32)cc1.O=C(O)/C=C\C(=O)O [1 Maleate of Example 71] | 118.01 | 115.41 | 80.1 | 0.64 | 1.27 | 1.09 | 0.50 | 80.1 | 42.9 | 7.69 | 1.66 | 82.0
3 | CC(=O)Nc1ccc(C2=NN(Cc3cccnc3)c3nnc(C)n3-c3sc(C)c(C)c32)cc1.Cc1ccc(S(=O)(=O)O)cc1 [1 Tosylate of Example 71] | 101.11 | 95.75 | 62.1 | 0.52 | 1.48 | 1.42 | 0.50 | 62.1 | 34.7 | 7.04 | 2.46 | 85.0

Second part, led by results:

Row | AUCinf [1] [ng·h/mL] | AUCt [1] [ng·h/mL] | Cmax [1] [ng/mL] | Kel [1] [h⁻¹] | MRT [1] [h] | T1/2 [1] [h] | Tmax [1] [h] | Concentration (ng/mL), sampling time 0.5 h [1] [ng/mL] | Concentration (ng/mL), sampling time 1 h [1] [ng/mL] | Concentration (ng/mL), sampling time 3 h [1] [ng/mL] | Concentration (ng/mL), sampling time 6 h [1] [ng/mL] | Structure (SMILES) | LPS-induced IL-6 production (% Inhibition @ 10 mg/kg) (IL-6 production) [%]
4 | 54.47 | 31.38 | 15.70 | 0.35 | 1.63 | 3.02 | 0.50 | 15.70 | 11.3 | 4.28 | 2.29 | CC(=O)Nc1ccc(C2=NN(Cc3cccnc3)c3nnc(C)n3-c3sc(C)c(C)c32)cc1.CC(=O)Nc1ccc(C2=NN(Cc3cccnc3)c3nnc(C)n3-c3sc(C)c(C)c32)cc1.O=C(O)/C=C/C(=O)O [0.5 Fumarate of Example 71] | 83.0
5 | 106.41 | 104.34 | 79.8 | 0.64 | 1.30 | 1.10 | 0.50 | 79.8 | 36.2 | 6.88 | 1.3 | CC(=O)Nc1ccc(C2=NN(Cc3cccnc3)c3nnc(C)n3-c3sc(C)c(C)c32)cc1.CC(=O)Nc1ccc(C2=NN(Cc3cccnc3)c3nnc(C)n3-c3sc(C)c(C)c32)cc1.O=C(O)CCC(=O)O [0.5 Succinate of Example 71] | 83.0
